Patent publication US20020002277A1, “Inhibitors of platelet activation and recruitment” (priority 1998, published 2002)

B1: S218A mutant: CD39 mutant, Serine218 replaced with alanine (protein, UniProt P49961 1-510, looked up, variant S218A)
Ectonucleoside triphosphate …: MEDTKESNVKTFCSKNILAILGFSSIIAVIALLAVGLTQNKALPENVKYGIVLDAGSSHTSLYIYKWPAEKENDTGVVHQVEECRVKGPGISKFVQKVNEIGIYLTDCMERAREVIPRSQHQETPVYLGATAGMRLLRMESEELADRVLDVVERSLSNYPFDFQGARIITGQEEGAYGWITINYLLGKFSQKTRWFSIVPYETNNQETFGALDLGGAATQVTFVPQNQTIESPDNALQFRLYGKDYNVYTHSFLCYGKDQALWQKLAKDIQVASNEILRDPCFHPGYKKVVNVSDLYKTPCTKRFEMTLPFQQFEIQGIGNYQQCHQSILELFNTSYCPYSQCAFNGIFLPPLQGDFGAFSAFYFVMKFLNLTSEKVSQEKVTEMMKKFCAQPWEEIKTSYAGVKEKYLSEYCFSGTYILSLLLQGYHFTADSWEHIHFIGKIQGSDAGWTLGYMLNLTNMIPAEQPLSTPLSHSTYVFLMVLFSLVLFTVAIIGLLIFHKPSYFWKDMV
B2: pIL2LSolCD39: untagged soluble human CD39 with huIL2 leader, 12 mature IL2 residues and three amino acid linker (SEQ ID NO:7) (protein)
chain: MALWIDRMQLLSCIALSLALVTNSAPTSSSTKKTQLTSSTQNKALPENVKYGIVLDAGSSHTSLYIYKWPAEKENDTGVVHQVEECRVKGPGISKFVQKVNEIGIYLTDCMERAREVIPRSQHQETPVYLGATAGMRLLRMESEELADRVLDVVERSLSNYPFDFQGARIITGQEEGAYGWITINYLLGKFSQKTRWFSIVPYETNNQETFGALDLGGASTQVTFVPQNQTIESPDNALQFRLYGKDYNVYTHSFLCYGKDQALWQKLAKDIQVASNEILRDPCFHPGYKKVVNVSDLYKTPCTKRFEMTLPFQQFEIQGIGNYQQCHQSILELFNTSYCPYSQCAFNGIFLPPLQGDFGAFSAFYFVMKFLNLTSEKVSQEKVTEMMKKFCAQPWEEIKTSYAGVKEKYLSEYCFSGTYILSLLLQGYHFTADSWEHIHFIGKIQGSDAGWTLGYMLNLTNMIPAEQPLSTPLSHST
B3: pIL2LTrim1: huIL2 leader joined to solCD39 with an intervening alanine residue (SEQ ID NO:27) (protein)
chain: MALWIDRMQLLSCIALSLALVTNSATQNKALPENVKYGIVLDAGSSHTSLYIYKWPAEKENDTGVVHQVEECRVKGPGISKFVQKVNEIGIYLTDCMERAREVIPRSQHQETPVYLGATAGMRLLRMESEELADRVLDVVERSLSNYPFDFQGARIITGQEEGAYGWITINYLLGKFSQKTRWFSIVPYETNNQETFGALDLGGASTQVTFVPQNQTIESPDNALQFRLYGKDYNVYTHSFLCYGKDQALWQKLAKDIQVASNEILRDPCFHPGYKKVVNVSDLYKTPCTKRFEMTLPFQQFEIQGIGNYQQCHQSILELFNTSYCPYSQCAFNGIFLPPLQGDFGAFSAFYFVMKFLNLTSEKVSQEKVTEMMKKFCAQPWEEIKTSYAGVKEKYLSEYCFSGTYILSLLLQGYHFTADSWEHIHFIGKIQGSDAGWTLGYMLNLTNMIPAEQPLSTPLSHST
B4: pIL2LTrim2: huIL2 leader with an intervening Ala-Ser-Ser linker preceding solCD39 (protein)
chain: TQNKALPENVKYGIVLDAGSSHTSLYIYKWPAEKENDTGVVHQVEECRVKGPGISKFVQKVNEIGIYLTDCMERAREVIPRSQHQETPVYLGATAGMRLLRMESEELADRVLDVVERSLSNYPFDFQGARIITGQEEGAYGWITINYLLGKFSQKTRWFSIVPYETNNQETFGALDLGGASTQVTFVPQNQTIESPDNALQFRLYGKDYNVYTHSFLCYGKDQALWQKLAKDIQVASNEILRDPCFHPGYKKVVNVSDLYKTPCTKRFEMTLPFQQFEIQGIGNYQQCHQSILELFNTSYCPYSQCAFNGIFLPPLQGDFGAFSAFYFVMKFLNLTSEKVSQEKVTEMMKKFCAQPWEEIKTSYAGVKEKYLSEYCFSGTYILSLLLQGYHFTADSWEHIHFIGKIQGSDAGWTLGYMLNLTNMIPAEQPLSTPLSHST
modifications: left off: small tags and cut ends
B5: Abciximab: platelet-specific chimeric antibody, glycoprotein IIb/IIIa antagonist (trade name ReoPro) (antibody, chains of the INN, looked up, V domains shown)
VH: EVQLQQSGTVLARPGASVKMSCEASGYTFTNYWMHWVKQRPGQGLEWIGAIYPGNSDTSYIQKFKGKAKLTAVTSTTSVYMELSSLTNEDSAVYYCTLYDGYYVFAYWGQGTLVTVSA
VL: EIVLTQSPVTLSVTPGDSVSLSCRASRDISNNLHWFQQTSHESPRLLIKYASQSMSGIPSRFSGSGSGTDFTLSINSVETEDFGMYFCQQTNSWPYTFGGGTKLEIK
modifications: Fab

Assays:
platelets = assay: Ex vivo additive inhibition of platelet aggregation in platelet rich plasma from patients; type: cell-based, human; conditions: PRP from patients receiving the drug (clopidogrel, ticlopidine, abciximab groups also received aspirin)
Method: Each group consisted of three to six patients. […] SoICD39 (10 μg/ml or 100 μg/ml) was then added and the additional inhibition of platelet activation (over baseline, in response to the platelet agonists) was measured in each of the five groups.

[1] = Murine model of stroke (middle cerebral artery occlusion); type: in vivo, C57BL/6J mice
Method: Anesthetized mice were maintained at 37±2° C. during and for 90 min following surgery. A midline neck incision was made and the right carotid artery exposed. Middle cerebral artery occlusion was accomplished by advancing a 13-mm heat-blunt tipped 6-0 nylon suture via an arteriotomy in the external carotid stump. The external carotid artery was cauterized to secure hemostasis, and arterial flow re-established. […] Surgical staples were used for wound closure.

murine platelets = assay: Ex vivo aggregation of murine platelets after treatment; type: in vivo, C57BL/6J mice; conditions: PRP 1 hour after solCD39 4 mg/kg or aspirin 5 mg/kg
Method: C57BL/6J mice (6-8 wk) were obtained from Jackson Laboratories (Bar Harbor, Me.). […] 80 μL of 3.8% trisodium citrate was added to each mL of blood. […] The PRP contained 400-700×10^3 platelets per μL. All experiments were completed within 2 hours of blood collection. PRP (200 μL) was preincubated, for 3 min. at 37° C., with 100 μL Tris-buffered saline buffer ([…], 5 mM glucose, pH 7.4) in an aggregometer cuvette (Lumiaggregometer; Chrono-Log, Havertown, Pa.), and the platelet agonists ADP, collagen, or sodium arachidonate were added at the final concentrations indicated.

[2] = Enzymatic (ATPase and ADPase) activity of site-directed CD39 mutants; type: biochemical; conditions: alanine replacement mutant
Method: Mutants were assayed for enzymatic (ATPase and ADPase) and platelet inhibitory (dose-dependent inhibition of platelet aggregation) activities. For one series of mutants, residues within the conserved apyrase regions were replaced with alanine.

[3] = Phosphate release assay for ATPase activity; type: biochemical; conditions: for CPM × 10^3 (net counts), ATPase activity in CM: 5 days (Table 3); for Activity (pmol ATP/min/μg) × 10^3: specific activity based on ELISA concentration, COS-1 1x supernatant, 10 cm plates, 5 days
Method: This example describes an ATPase assay that may be used to track enzyme activity. Samples (approximately 100 μl of either concentrated CM or purified polypeptide) are combined with 20 μl of 10X assay buffer (200 mM HEPES, 1.2 M NaCl, 50 mM KCl, 15 mM CaCl2, 15 mM MgCl2 and 3 mM ATP) and sterile water is added to a final volume of 200 μl. Radiolabeled ATP (0.8 μCi γ [^32P] ATP; Amersham, Arlington Heights, Ill.) is added and the mixture incubated for 20 minutes at 37° C. Stop mix (0.5 ml of 20% activated charcoal/1 M HCl) is added and the reaction is placed on ice for 10 minutes. After centrifugation (14K rpm for 10 minutes), the supernatant is assayed for free ^32P using a scintillation counter. Data are expressed as raw counts or net counts, or as picomoles of ATP degraded per minute.
The transfections were repeated and the CM (10, 20 and 30 μL, unconcentrated) was assayed essentially as described in Example 7. […] ATPase levels in CM from COS-1 cells transfected with pIL2LFlagSolCD39 increased with time in culture over at least 4 days post-transfection.
To determine whether activity was affected by removal of the N-terminal FLAG® tag, COS-1 cells were transfected with pIL2LFlagSolCD39 and pIL2LSolCD39 and supernatants (sups) were harvested after 5 days. Samples of 10, 20 and 30 μL of 1x sups were assayed for ATPase activity as described in Example 7.
The expression of Trim1 and Trim2 constructs was analyzed in COS-1 cells cultured in 10 cm plates. After 5 days of incubation, 1x supernatants were examined via ELISA (using anti-CD39) and the phosphate-release assay described in Example 7. […] Expression levels, however, appeared to be reduced 3-4 fold.

Molecule | Platelet aggregation, baseline (platelets; agonist ADP) [arbitrary units] | Platelet aggregation, baseline (platelets; agonist Collagen) [arbitrary units] | Platelet aggregation, baseline (platelets; agonist TRAP) [arbitrary units] | Activity (pmol ATP/min/μg) × 10^3 [3] [pmol ATP/min/μg × 10^3] | other results
COC(=O)[C@H](c1ccccc1Cl)N1CCc2sccc2C1 [Clopidogrel, clopidogrel] | 58 ± 6 | 57 ± 9 | 51 ± 2 |  | 
CC(=O)Oc1ccccc1C(=O)O [aspirin, acetylsalicylic acid] | 69 ± 5 | 62 ± 8 | 66 ± 6 |  | postischemic cerebral blood flow ([1]; 24 hours after stroke induction): no improvement was seen in postischemic cerebral blood flow; intracerebral hemorrhage following stroke ([1]; measured spectrophotometrically, any dose of solCD39 tested, aspirin 5 mg/kg): increased intracerebral hemorrhage; cerebral infarct volume ([1]; preoperative administration, solCD39 4 & 8 mg/kg, aspirin 5 mg/kg): tendency to decrease cerebral infarct volume, although this effect was not statistically significant; ex vivo platelet aggregation, collagen (murine platelets; 2.5 μg/ml collagen): strongly aggregated; ex vivo platelet aggregation, ADP (murine platelets; 10 μM ADP): strongly aggregated; ex vivo platelet aggregation, arachidonate (murine platelets; 0.1 mM sodium arachidonate): only blocked platelet reactivity to arachidonate
B1 |  |  |  |  | ADPase activity retained [2]: less than 10%
B2 |  |  |  | 5.67 | CPM × 10^3 (net counts), ATPase activity in CM ([3]; 10 μL 1x COS-1 supernatant): 20.1 CPM × 10^3; CPM × 10^3 (net counts), ATPase activity in CM ([3]; 20 μL 1x COS-1 supernatant): 36.0 CPM × 10^3; CPM × 10^3 (net counts), ATPase activity in CM ([3]; 30 μL 1x COS-1 supernatant): 51.0 CPM × 10^3
B3 |  |  |  | 8.38 | 
B4 |  |  |  | 6.67 | 
B5 | 0 ± 0 | 0 ± 0 | 46 ± 6 |  | 
